Structures are written as SMILES.

Holding throughout (assay type): cell-based
Experiment [1] concerns human melanoma cells Mewo (with wild-type B-Raf). As to the kind of experiment: In vitro cell proliferation assay, Mewo. As to conditions: 72 h treatment, cellular ATP readout. As for the experimental part: (§1) Exponentially growing human melanoma cells A375 (with a mutated B-Raf) and human melanoma cells Mewo (with wild-type B-Raf) were seeded and incubated at 37° C. in a humidified 5% CO2 atmosphere. After 24 h, scalar doses of the compound were added to the medium and cells incubated for 72 h. At the end of treatment, cells were washed and counted. Cell number was determined by a cellular adenosine triphosphate monitoring system. Cell proliferation was compared to control cells and the concentration inhibiting cell growth by 50% was calculated.

In experiment [2] the test system is p-MAPK (T202/Y204) in A375 human melanoma cells, having a mutated B-Raf. The experiment is described as follows: p-MAPK (T202/Y204) ArrayScan assay. As to conditions: A-375, 1.5 or 2 h treatment, p-MAPK staining, read-out: Array Scan A375 IC50. As for the experimental part: A375 human melanoma cells, having a mutated B-Raf, were seeded in 384-well poly-lysine coated plates (Matrix) at a density of 1000 cells/well with appropriate medium supplemented with 10% FCS and incubated for 16-24 h. Cells were treated for 1.5 or 2 h with increasing doses of compounds (starting dose 10 μM, dilution factor 2.5). At the end of the treatment cells were fixed with p-formaldehyde 3.7% for 15-30 min, then washed twice with D-PBS (80 μL/well) and permeabilized with D-PBS containing 0.1% Triton X-100 and 1% BSA (Sigma-Aldrich) for 15 min at room temperature (staining solution). Anti-phospho-MAPK (T202/Y204) monoclonal antibody E10 (Cell Signaling, cat. #9106) diluted 1:100 was added in staining solution and incubated for 1 h at 37° C. After removal of the primary antibody solution, the anti-mouse Cy™ 2-conjugated (Green) secondary antibody (Amersham) diluted 1:500 in staining solution containing 2 μg/mL DAPI was added. The plate was incubated for 1 h at 37° C., washed twice and then read with Cellomics' ArrayScan VTI (4 fields/well, CytoNucTrans algorithm).
The parameter “MEAN_RingAvgIntenCh2”, which measures the mean cytoplasmatic fluorescence intensity associated to p-MAPK staining, is reported as the final result.

Experiment [3] deals with human melanoma cells A375 (with a mutated B-Raf). As to the kind of experiment: In vitro cell proliferation assay, A375. Conditions: A-375, 72 h treatment, cellular ATP readout. As for the experimental part: as §1

Turning to `CCN(CC)c1nc(-c2c(F)ccc(NS(=O)(=O)c3cc(F)ccc3F)c2F)c(-c2ccncc2)s1` [cmpd. 3, N-{3-[2-(diethylamino)-5-(pyridin-4-yl)-1,3-thiazol-4-yl]-2,4-difluorophenyl}-2,5-difluorobenzenesulfonamide], the half-inhibitory concentration (IC50) in experiment [1] was over 10000 nM; in experiment [2], 1 nM; in experiment [3], 166 nM.
The like results for `O=S(=O)(Nc1ccc(F)c(-c2nc(N3CCC(F)(F)CC3)sc2-c2ccncc2)c1F)c1cc(F)ccc1F` [cmpd. 14, N-{3-[2-(4,4-difluoropiperidin-1-yl)-5-(pyridin-4-yl)-1,3-thiazol-4-yl]-2,4-difluorophenyl}-2,5-difluorobenzenesulfonamide] were, in that order, over 10000 nM, 4 nM and 66 nM.
The corresponding values for `O=S(=O)(Nc1cccc(-c2nc(N3CCC(F)(F)CC3)sc2-c2ccncc2)c1F)c1cc(F)ccc1F` [cmpd. 18, N-{3-[2-(4,4-difluoropiperidin-1-yl)-5-(pyridin-4-yl)-1,3-thiazol-4-yl]-2-fluorophenyl}-2,5-difluorobenzenesulfonamide] are over 10000 nM, 2 nM and 127 nM.
The like results for `CN1CCC(c2nc(-c3cccc(NS(=O)(=O)c4cc(F)ccc4F)c3F)c(-c3ccncc3)s2)CC1` [cmpd. 19, 2,5-difluoro-N-{2-fluoro-3-[2-(1-methylpiperidin-4-yl)-5-(pyridin-4-yl)-1,3-thiazol-4-yl]phenyl}benzenesulfonamide] were, in that order, over 10000 nM, 2 nM and 40 nM.
As for `O=S(=O)(Nc1cccc(-c2nc(C3CCOCC3)sc2-c2ccncc2)c1F)c1cc(F)ccc1F` [cmpd. 20, 2,5-difluoro-N-{2-fluoro-3-[5-(pyridin-4-yl)-2-(tetrahydro-2H-pyran-4-yl)-1,3-thiazol-4-yl]phenyl}benzenesulfonamide], the IC50 is over 10000 nM in experiment [1], 2 nM in experiment [2] and 78 nM in experiment [3].
As to `O=S(=O)(Nc1cccc(-c2nc(C3CCN(C4CC4)CC3)sc2-c2ccncc2)c1F)c1cc(F)ccc1F` [cmpd. 21, N-{3-[2-(1-cyclopropylpiperidin-4-yl)-5-(pyridin-4-yl)-1,3-thiazol-4-yl]-2-fluorophenyl}-2,5-difluorobenzenesulfonamide], the IC50 in experiment [1] was over 10000 nM; in experiment [3], 23 nM.
The corresponding values for `Nc1cc(-c2sc(C3CCN(C4CC4)CC3)nc2-c2cccc(NS(=O)(=O)c3cc(F)ccc3F)c2F)ccn1` [cmpd. 22, N-{3-[5-(2-aminopyridin-4-yl)-2-(1-cyclopropylpiperidin-4-yl)-1,3-thiazol-4-yl]-2-fluorophenyl}-2,5-difluorobenzenesulfonamide] are over 10000 nM and 27 nM.
The like results for `CC(=O)Nc1cc(-c2sc(C3CCN(C)CC3)nc2-c2cccc(NS(=O)(=O)c3cc(F)ccc3F)c2F)ccn1` [cmpd. 23, N-{4-[4-(3-{[(2,5-difluorophenyl)sulfonyl]amino}-2-fluorophenyl)-2-(1-methylpiperidin-4-yl)-1,3-thiazol-5-yl]pyridin-2-yl}acetamide] were, in that order, over 10000 nM and 6 nM.
The like results for `Nc1cc(-c2sc(C3CCOCC3)nc2-c2cccc(NS(=O)(=O)c3cc(F)ccc3F)c2F)ccn1` [cmpd. 24, N-{3-[5-(2-aminopyridin-4-yl)-2-(tetrahydro-2H-pyran-4-yl)-1,3-thiazol-4-yl]-2-fluorophenyl}-2,5-difluorobenzenesulfonamide] were, in that order, over 10000 nM and 15 nM.
Regarding `CNc1cc(-c2sc(C3CCOCC3)nc2-c2cccc(NS(=O)(=O)c3cc(F)ccc3F)c2F)ccn1` [cmpd. 25, 2,5-difluoro-N-(2-fluoro-3-{5-[2-(methylamino)pyridin-4-yl]-2-(tetrahydro-2H-pyran-4-yl)-1,3-thiazol-4-yl}phenyl)benzenesulfonamide], the half-inhibitory concentration (IC50) is over 10000 nM in experiment [1] and 32 nM in experiment [3].
The like results for `CC(=O)Nc1cc(-c2sc(C3CCN(C4CC4)CC3)nc2-c2cccc(NS(=O)(=O)c3cc(F)ccc3F)c2F)ccn1` [cmpd. 30, N-{4-[2-(1-cyclopropylpiperidin-4-yl)-4-(3-{[(2,5-difluorophenyl)sulfonyl]amino}-2-fluorophenyl)-1,3-thiazol-5-yl]pyridin-2-yl}acetamide] were, in that order, over 10000 nM and 3 nM.
The corresponding values for `CC(=O)Nc1cc(-c2sc(C3CCOCC3)nc2-c2cccc(NS(=O)(=O)c3cc(F)ccc3F)c2F)ccn1` [cmpd. 35, N-{4-[4-(3-{[(2,5-difluorophenyl)sulfonyl]amino}-2-fluorophenyl)-2-(tetrahydro-2H-pyran-4-yl)-1,3-thiazol-5-yl]pyridin-2-yl}acetamide] are over 10000 nM and 0.6 nM.
The corresponding values for `CC(=O)NCCNc1cc(-c2sc(C3CCOCC3)nc2-c2cccc(NS(=O)(=O)c3cc(F)ccc3F)c2F)ccn1` [cmpd. 36, N-[2-({4-[4-(3-{[(2,5-difluorophenyl)sulfonyl]amino}-2-fluorophenyl)-2-(tetrahydro-2H-pyran-4-yl)-1,3-thiazol-5-yl]pyridin-2-yl}amino)ethyl]acetamide] are over 10000 nM and 69 nM.
`CNc1cc(-c2sc(C3CCN(C4CC4)CC3)nc2-c2cccc(NS(=O)(=O)c3cc(F)ccc3F)c2F)ccn1` [cmpd. 37, N-(3-{2-(1-cyclopropylpiperidin-4-yl)-5-[2-(methylamino)pyridin-4-yl]-1,3-thiazol-4-yl}-2-fluorophenyl)-2,5-difluorobenzenesulfonamide]: the IC50 in experiment [1] is over 10000 nM; in experiment [3], 92 nM.
Take `CNc1cc(-c2sc(C3CCN(C)CC3)nc2-c2cccc(NS(=O)(=O)c3cc(F)ccc3F)c2F)ccn1` [cmpd. 38, 2,5-difluoro-N-(2-fluoro-3-{5-[2-(methylamino)pyridin-4-yl]-2-(1-methylpiperidin-4-yl)-1,3-thiazol-4-yl}phenyl)benzenesulfonamide]: the IC50 in experiment [1] was over 10000 nM; in experiment [3], 47 nM.
Regarding `CN1CCC(c2nc(-c3cccc(NS(=O)(=O)c4cc(F)ccc4F)c3F)c(-c3ccnc(N)c3)s2)CC1` [cmpd. 39, N-{3-[5-(2-aminopyridin-4-yl)-2-(1-methylpiperidin-4-yl)-1,3-thiazol-4-yl]-2-fluorophenyl}-2,5-difluorobenzenesulfonamide], the concentration for half-maximal inhibition (IC50) in experiment [1] was over 10000 nM; in experiment [3], 27 nM.
The corresponding values for `COC(=O)N[C@@H](C)CNc1cc(-c2sc(C3CCOCC3)nc2-c2cccc(NS(=O)(=O)c3cc(F)ccc3F)c2F)ccn1` [cmpd. 41, Methyl [(2S)-1-({4-[4-(3-{[(2,5-difluorophenyl)sulfonyl]amino}-2-fluorophenyl)-2-(tetrahydro-2H-pyran-4-yl)-1,3-thiazol-5-yl]pyridin-2-yl}amino)propan-2-yl]carbamate] are over 10000 nM and 8 nM.
The like results for `CC(=O)Nc1cc(-c2sc(C(C)(C)C)nc2-c2cccc(NS(=O)(=O)c3cc(F)ccc3F)c2F)ccn1` [cmpd. 42, N-{4-[2-tert-butyl-4-(3-{[(2,5-difluorophenyl)sulfonyl]amino}-2-fluorophenyl)-1,3-thiazol-5-yl]pyridin-2-yl}acetamide] were, in that order, over 10000 nM and 0.6 nM.
For the compound `CC(C)(C)c1nc(-c2cccc(NS(=O)(=O)c3cc(F)ccc3F)c2F)c(-c2ccncc2)s1` [cmpd. 43, N-{3-[2-tert-butyl-5-(pyridin-4-yl)-1,3-thiazol-4-yl]-2-fluorophenyl}-2,5-difluorobenzenesulfonamide], the half-inhibitory concentration (IC50) in experiment [1] is over 10000 nM; in experiment [3], 12 nM.
As to `CC(=O)Nc1cc(-c2sc(C3CCNCC3)nc2-c2cccc(NS(=O)(=O)c3cc(F)ccc3F)c2F)ccn1` [cmpd. 44, N-{4-[4-(3-{[(2,5-difluorophenyl)sulfonyl]amino}-2-fluorophenyl)-2-(piperidin-4-yl)-1,3-thiazol-5-yl]pyridin-2-yl}acetamide], the IC50 in experiment [1] was over 10000 nM; in experiment [3] it was 40 nM.

For orientation: IC50 means the midpoint of a concentration-inhibition curve.

For the origin of these results see patent publication US9199979B2, “Thiazolylphenyl-benzenesulfonamido derivatives as kinase inhibitors” (NERVIANO MEDICAL SCIENCES S.R.L., priority 2011, dated 2015).
